Measured values taken from publication PMC2119205 (The Journal of Experimental Medicine, 1992).
pEC50: −log10 of the molar value.

Key:
[1] = test system: antigen presentation by LNC to T cell hybridoma 1C5.1; experiment: Chloroquine treatment of irradiated LNC before T hybridoma activation; format: cell-based; settings: C3H mice primed with 14 nmol/mouse HEL in CFA, 10^6 LNC/well; chloroquine 1-100 µM, hybridoma 1C5.1 (Fig. 3)
[2] = test system: I-Ak molecules; settings: cited from earlier work
[3] = test system: T cell response; settings: cited from earlier work
[4] = test system: I-Ek molecules; settings: cited from earlier work
[5] = test system: I-Ed molecules; settings: cited from earlier work
[6] = test system: T cell hybridoma 2G7.1 (I-Ek/HEL 1-18); format: cell-based, mouse; settings: read-out: Responsiveness: amount of HEL or peptide inducing 50% of the maximal response; hybridoma 2G7.1, restriction Ek; LK-35.2 cells as APC; mean of three to four experiments
[7] = test system: T cell hybridoma 1H11.3 (I-Ed/HEL 108-116); format: cell-based, mouse; settings: read-out: Responsiveness: amount of HEL or peptide inducing 50% of the maximal response; hybridoma 1H11.3, restriction Ed; LK-35.2 cells as APC; mean of three to four experiments
[8] = test system: T cell hybridoma 1C5.1 (I-Ak/HEL 46-61); format: in vivo, C3H mice; settings: LNC from HEL-primed mice (not shown)
[9] = test system: T cell hybridoma 2D4.1 (I-Ak/HEL 112-129); format: cell-based, mouse; settings: read-out: Responsiveness: amount of HEL or peptide inducing 50% of the maximal response; hybridoma 2D4.1, restriction Ak; LK-35.2 cells as APC; mean of three to four experiments
[10] = test system: T cell hybridoma 1H11.3 (I-Ed/HEL 108-116); format: in vivo, C3H and DBA/2 mice; settings: DBA/2 (H-2d) mice, 7 nmol/mouse HEL-CFA, LNC day 8, no antigen added (Fig. 1)
[11] = test system: T cell hybridoma 3A9 (I-Ak/HEL 46-61); format: cell-based, mouse; settings: read-out: Responsiveness: amount of HEL or peptide inducing 50% of the maximal response; hybridoma 3A9, restriction Ak; LK-35.2 cells as APC; mean of three to four experiments
[12] = test system: T cell hybridoma 3A9 (I-Ak/HEL 46-61); format: in vivo, C3H and DBA/2 mice; settings: C3H (H-2k) mice, 7 nmol/mouse HEL-CFA, LNC day 8, no antigen added (Fig. 1)
[13] = test system: T cell hybridoma 1C5.1 (I-Ak/HEL 46-61); format: cell-based, mouse; settings: read-out: Responsiveness: amount of HEL or peptide inducing 50% of the maximal response; hybridoma 1C5.1, restriction Ak; LK-35.2 cells as APC; mean of three to four experiments

CCN(CC)CCCC(C)Nc1ccnc2cc(Cl)ccc12 (centres unmarked) [chloroquine]
Effect on antigen presentation by LNC from HEL-primed mice [1]: failsto interfere

CNDGRTPGSRNLCN [HEL 64-77]
Binding to I-Ak [2]: does not bind

DRGDQSTDYGIFQINSR [ML 46-62]
Immunogenicity in mice [3]: nonimmunogenic
Binding to I-Ek molecules [4]: failsto bind
Binding to I-Ak molecules [2]: binds strongly
Binding to I-Ed molecules [5]: failsto bind

hen egg white lysozyme [HEL]
pEC50 [6]: 6.52
pEC50 [7]: 6.30
Time after immunization of maximal antigen-presenting activity in LNC [8]: 8 days
pEC50 [9]: 6.52
IL-2 production by 1H11.3 induced by LNC from primed mice [10]: induce
pEC50 [11]: 7.70
IL-2 production by 3A9 induced by LNC from primed mice [12]: induce
pEC50 [13]: 6.52
